Data as given in patent US20110045101A1, “FUNGICIDAL SUBSTITUTED AZOLES” (E.I. Du Pont De Nemours and Company, priority 2009, published 2011).
Marks after values point to notes of the source that are not given here.

Assays:
Format in all cases: in vivo
Settings in all cases: 100 = 100% disease control
[1] = test system: Puccinia recondita f. sp. tritici; assay: Test I: wheat leaf rust on wheat seedlings, sprayed the day before inoculation, visual disease rating
Procedure, shortened: (§1)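 Spray suspension: acetone 3% of final volume, then 50/50 acetone/water plus 250 ppm Trem® 014. Applied to run-off on seedlings at 200 ppm (≈500 g/ha); starred entries tested at 40 ppm.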

[2] = test system: Puccinia recondita f. sp. tritici; assay: Test H: wheat leaf rust, test suspension sprayed after inoculation of wheat seedlings, visual disease rating
Procedure, shortened: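 Wheat seedlings inoculated with P. recondita spores, held 24 h saturated at 20 °C, then 2 days in growth chamber at 20 °C; compound suspension (acetone/water with Trem 014) sprayed to run-off afterwards. Rated visually; 200 ppm (≈500 g/ha) unless marked *, which denotes 40 ppm.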

Septoria tritici = assay: Test G: wheat leaf blotch on wheat seedlings, sprayed the day before inoculation, visual disease rating
Procedure, shortened: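 Wheat seedlings were sprayed to run-off with test suspension (acetone/water plus surfactant), generally 200 ppm (≈500 g/ha), or 40 ppm where marked. Septoria tritici spores were inoculated the next day; plants were held 48 h at 24°C in saturated atmosphere, then 19 days at 20°C before visual disease rating.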

Botrytis cinerea = assay: Test C: tomato Botrytis on tomato seedlings, sprayed the day before inoculation, visual disease rating
Procedure, shortened: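 Spray to run-off on tomato seedlings; test conc. 200 ppm (≈500 g/ha), some entries 40 ppm. Formulation: acetone 3% of final vol., then acetone/water 50:50 + 250 ppm polyhydric alcohol ester surfactant.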

Alternaria solani = assay: Test D: tomato early blight, sprayed the day before inoculation, visual disease rating
Procedure, shortened: as §1

Septoria nodorum = assay: Test F: wheat glume blotch on wheat seedlings, sprayed the day before inoculation, visual disease rating
Procedure, shortened: as §1

[3] = test system: Erysiphe graminis f. sp. tritici; assay: Test J: wheat powdery mildew on wheat seedlings, sprayed the day before inoculation, visual disease rating
Procedure, shortened: as §1

[4] = 200 ppm, 0 = no control relative to controls

Structure (SMILES)	Test I disease control rating [1, 4] [%]	Test H disease control rating [2, 4] [%]	Test G disease control rating (Septoria tritici; [4]) [%]	Test C disease control rating (Botrytis cinerea; [4]) [%]	Test D disease control rating (Alternaria solani; [4]) [%]	Test F disease control rating (Septoria nodorum; [4]) [%]	Test J disease control rating [3, 4] [%]	Test I disease control rating ([1]; 40 ppm (marked *))	Test H disease control rating ([2]; 40 ppm (marked *))	Test G disease control rating (Septoria tritici; 40 ppm (marked *))	Test C disease control rating (Botrytis cinerea; 40 ppm (marked *))	Test D disease control rating (Alternaria solani; 40 ppm (marked *))	Test F disease control rating (Septoria nodorum; 40 ppm (marked *))	Test J disease control rating ([3]; 40 ppm (marked *))
COc1cc(F)c(-c2c(Cl)ncn2-c2cccc(OC(F)(F)F)c2)c(F)c1 [compound 558]	99	15	94	100	0	0	100	–	–	–	–	–	–	–
Cc1ncn(-c2ccc(Cl)c(F)c2)c1-c1cncc(Br)c1 [compound 346]	9	9	38	99	0	0	0	–	–	–	–	–	–	–
CC(=O)Nc1ccc(-n2c(Cl)nc(Cl)c2-c2c(F)cccc2F)cc1 [compound 637]	–	–	–	–	–	–	–	65* %	0* %	92* %	97* %	0* %	0* %	0* %
COc1ccc(F)c(-c2c(Cl)nc(Br)n2-c2ccc(Cl)c(F)c2)c1F [compound 317]	99	17	95	100	100	100	100	–	–	–	–	–	–	–
COc1cc(F)c(-c2c(Br)nc(Br)n2-c2ccc(C)nc2)c(F)c1 [compound 554]	100	100	99	100	100	100	100	–	–	–	–	–	–	–
COc1cc(F)c(-n2cnc(C)c2-c2cccc(F)c2)c(F)c1 [compound 683]	–	–	–	–	–	–	–	0* %	8* %	67* %	100* %	97* %	0* %	98* %
COc1cc(F)c(-c2c(O)nc(C)n2-c2ccc(Cl)cc2)c(F)c1 [compound 672]	0	0	87	96	0	0	0	–	–	–	–	–	–	–
Cc1ccc(-n2cnc(Br)c2-c2c(F)ccc(F)c2F)cc1 [compound 411]	99	0	99	100	100	0	100	–	–	–	–	–	–	–
Fc1cc(-n2c(Cl)nc(Cl)c2-c2cncc(Br)c2)ccc1Cl [compound 486]	14	0	0	66	0	0	0	–	–	–	–	–	–	–
Cc1ccc(-n2c(Cl)nc(Br)c2-c2c(F)ccc(F)c2Cl)cc1 [compound 464]	–	–	–	–	–	–	–	99* %	0* %	72* %	99* %	89* %	0* %	100* %
COc1cc(F)c(-c2c(Cl)nc(Cl)n2-c2cncc(F)c2)c(F)c1 [compound 728]	100	100	99	100	100	100	100	–	–	–	–	–	–	–
Fc1cccc(-n2cnc(Cl)c2-c2c(F)cc(F)cc2F)c1 [compound 362]	83	0	86	100	99	0	49	–	–	–	–	–	–	–
